Test results taken from patent US20150133426A1, “SUBSTITUTED PYRROLOPYRIMIDINES” (BAYER PHARMA AKTIENGESELLSCHAFT, priority 2012, published 2015).

Target: T1, human full-length MKNK1 (Homo sapiens, UniProt Q9BUB5, T385D)
T1 construct: purchased Carna Biosciences 02-145; host or cells: insect cells, baculovirus expression system
Test: MKNK1 kinase high ATP assay (TR-FRET)
Type: biochemical
Conditions: high ATP (2 mM), 15 min preincubation with enzyme, GST-MKNK1 (T344D)
How it was run: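 GST-tagged full-length human MKNK1 (aa 1-424, T344D), baculovirus-expressed, preincubated 15 min with compound, then reacted 30 min at 22 °C with 2 mM ATP and 0.06 µM biotinylated peptide (final).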

T1 sequence (Q9BUB5 1-424 isoform Q9BUB5-2 T344D): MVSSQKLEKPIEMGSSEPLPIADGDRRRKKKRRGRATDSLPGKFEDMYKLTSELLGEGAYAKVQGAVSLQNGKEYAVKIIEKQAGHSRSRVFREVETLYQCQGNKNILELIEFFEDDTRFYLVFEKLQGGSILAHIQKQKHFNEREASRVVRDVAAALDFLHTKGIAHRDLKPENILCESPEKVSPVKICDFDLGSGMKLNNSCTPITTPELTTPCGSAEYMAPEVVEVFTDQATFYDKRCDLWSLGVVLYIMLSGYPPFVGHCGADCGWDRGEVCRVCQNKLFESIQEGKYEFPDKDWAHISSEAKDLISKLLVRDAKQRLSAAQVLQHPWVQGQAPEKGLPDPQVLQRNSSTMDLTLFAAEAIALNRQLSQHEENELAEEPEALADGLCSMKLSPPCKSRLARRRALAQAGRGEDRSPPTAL

Row | SMILES | IC50 [nM]
1 | CS(=O)(=O)CCCNC(=O)C1CCc2[nH]c3ncnc(Nc4ccc5c(c4)COC5=O)c3c2C1 (racemic) [Example 45, (RS)—N-[3-(Methylsulfonyl)propyl]-4-[(1-oxo-1,3-dihydro-2-benzofuran-5-yl)amino]-6,7,8,9-tetrahydro-5H-pyrimido[4,5-b]indole-6-carboxamide] | 82
2 | O=C(NCc1ccccc1)C1CCc2[nH]c3ncnc(N4CCc5ccccc54)c3c2C1 (racemic) [Example 209, (RS)—N-Benzyl-4-(2,3-dihydro-1H-indol-1-yl)-6,7,8,9-tetrahydro-5H-pyrimido[4,5-b]indole-6-carboxamide] | 450
3 | CCOC(=O)C1CCc2[nH]c3ncnc(Nc4ccc(F)cc4OC(C)C)c3c2C1 (racemic) [Example 174, (RS)-Ethyl 4-{[4-fluoro-2-(propan-2-yloxy)phenyl]amino}-6,7,8,9-tetrahydro-5H-pyrimido[4,5-b]indole-6-carboxylate] | 706
4 | CS(=O)(=O)CCCNC(=O)C1CCc2[nH]c3ncnc(Nc4ccc5[nH]c(=O)sc5c4)c3c2C1 (racemic) [Example 29, (RS)—N-[3-(Methylsulfonyl)propyl]-4-[(2-oxo-2,3-dihydro-1,3-benzothiazol-6-yl)amino]-6,7,8,9-tetrahydro-5H-pyrimido[4,5-b]indole-6-carboxamide] | 14
5 | CS(=O)(=O)CCCNC(=O)C1CCc2[nH]c3ncnc(Nc4ccc5[nH]c(=S)sc5c4)c3c2C1 (racemic) [Example 155, (RS)—N-[3-(Methylsulfonyl)propyl]-4-[(2-thioxo-2,3-dihydro-1,3-benzothiazol-6-yl)amino]-6,7,8,9-tetrahydro-5H-pyrimido[4,5-b]indole-6-carboxamide] | 504
6 | COc1ccc(F)cc1Nc1ncnc2[nH]c3c(c12)CC(C(=O)NCCC(F)(F)F)CC3 (racemic) [Example 198, (RS)-4-[(5-Fluoro-2-methoxyphenyl)amino]-N-(3,3,3-trifluoropropyl)-6,7,8,9-tetrahydro-5H-pyrimido[4,5-b]indole-6-carboxamide] | 249
7 | COc1ccc(Cl)cc1Nc1ncnc2[nH]c3c(c12)CC(C(=O)O)CC3 (racemic) [Example 235, (RS)-4-[(5-Chloro-2-methoxyphenyl)amino]-6,7,8,9-tetrahydro-5H-pyrimido[4,5-b]indole-6-carboxylic acid] | 159
8 | O=c1[nH]c2ccc(Nc3ncnc4[nH]c5c(c34)CC(F)(F)CC5)cc2s1 [Example 142] | 38
9 | COc1cc(F)c(Cl)cc1Nc1ncnc2[nH]c3c(c12)CC(C(=O)NCCCS(C)(=O)=O)CC3 (racemic) [Example 157, (RS)-4-[(5-Chloro-4-fluoro-2-methoxyphenyl)amino]-N-[3-(methylsulfonyl)propyl]-6,7,8,9-tetrahydro-5H-pyrimido[4,5-b]indole-6-carboxamide] | 444
10 | COc1ccc(Cl)cc1Nc1ncnc2[nH]c3c(c12)CC(C(=O)NCCCS(C)(=O)=O)CC3 (racemic) [Example 149, (RS)-4-[(5-Chloro-2-methoxyphenyl)amino]-N-[3-(methylsulfonyl)propyl]-6,7,8,9-tetrahydro-5H-pyrimido[4,5-b]indole-6-carboxamide] | 10
11 | Nc1cc(F)c([N+](=O)[O-])cc1Nc1ncnc2[nH]c3c(c12)CCCC3 [Example 109] | ≥ 20000
12 | CC(C)NC(=O)C1CCc2[nH]c3ncnc(Nc4cc(Cl)ccc4OC(C)C)c3c2C1 (racemic) [Example 225, (RS)-4-{[5-Chloro-2-(propan-2-yloxy)phenyl]amino}-N-(propan-2-yl)-6,7,8,9-tetrahydro-5H-pyrimido[4,5-b]indole-6-carboxamide] | 1040
13 | COCC1(OC)CCc2[nH]c3ncnc(Nc4cc(Cl)ccc4OC)c3c2C1 (racemic) [Example 133] | 205
14 | CC(C)NC(=O)C1CCc2[nH]c3ncnc(Nc4ccccc4N4CCOCC4)c3c2C1 (racemic) [Example 202, (RS)-4-{[2-(Morpholin-4-yl)phenyl]amino}-N-(propan-2-yl)-6,7,8,9-tetrahydro-5H-pyrimido[4,5-b]indole-6-carboxamide] | 267
